Assays:
male Wistar rats [1] = assay: Test 1: thickening of the small- and mid-sized renal artery wall in rats given L-NAME; type: in vivo, rat; settings: drinking water with L-NAME 1 g/L plus VPP 0.3 g/L or Enalapril 0.5 mg/L, ad libitum for eight weeks; compared with L-NAME alone; FIG. 1
Method: (§1) In order to evaluate the effect of the tripeptide Val Pro Pro (VPP) to suppress kidney glomerular disease and renal arteriosclerosis, a test on the frequency of occurrence of renal glomerular lesions and the degree of thickening of the small and middle renal artrey wall was carried out.
(§2) The test was carried out using three groups of male Wistar rats of seven weeks old (Japan SLC, Inc.), each of which group consist of 9 to 12 rats. […] The dose of Enalapril was determined such that its activity to inhibit ACE was equivalent to VPP's. […]
The thickening of the small-, and mid -sized artery wall existing in the renal cortex was also evaluated by a tissue pathological test in the same manner as the observation of the glomerular lesions. […] The thickness of the small- and mid-sized artery wall was scored from 0 to 3 as described below and a score for each individual rat was determined. The determined score for each individual rat was subjected to statistical analysis and a score for each group was determined. […]

male Wistar rats [2] = assay: Test 1: frequency of occurrence of renal glomerular lesions in rats given L-NAME; type: in vivo, rat; settings: drinking water with L-NAME 1 g/L plus VPP 0.3 g/L or Enalapril 0.5 mg/L, ad libitum for eight weeks; compared with L-NAME alone; FIG. 2
Method: as §1, §2
Under a microscopic observation, the glomerulus that atrophic lesions, deterioration of the glomerulus, glomerulosclerosis, alteration of Bowman's capsule or the like was observed was defined as the glomerulus with lesions, in accordance with the definition of the glomerular lesions described in a book by Enomoto et al. (edited by Makoto Enomoto, Yuzo Hayashi, and Hisako Tanaka, “Pathological tissues of experimental animals”, Softscience, pages 380-396). […] In one whole section, the frequency of occurrence of these glomerular lesions was scored from 0 to 3, and a score was determined for each individual rat. The thus determined score for each individual rat was subjected to statistical analysis and a score for each group was determined. […]

male Wistar rats [3] = assay: Test 2: rat renal pathologic state (glomerular lesions, renal artery wall at the hilum and small- and mid-sized artery wall thickening) in rats given L-NAME; type: in vivo; settings: drinking water with L-NAME 1 g/L plus IPP 0.3 g/L or Enalapril 0.5 mg/L, eight weeks; for With pathologic state / Without pathologic state: pathologic state = score not less than 1 in all three items
Method: The tripeptide Ile Pro Pro (IPP) was also tested for renal pathologic state, in order to evaluate its effect to suppress kidney glomerular disease and renal arteriosclerosis.
The test was carried out using three groups of male Wistar rats of seven weeks old (Japan SLC, Inc.), each of which group consist of 9 to 12 rats. After habituation breeding for a week, drinking water with L-NAME (manufactured by Sigma) being dissolved at a concentration of 1 g/L; drinking water with L-NAME and IPP being dissolved at a concentration of 1 g/L and 0.3 g/L respectively; drinking water with L-NAME and angiotensin converting enzyme (ACE) inhibitor, Enalapril at a concentration of 1 g/L and 0.5 mg/L respectively, were supplied ad libitum for eight weeks. The dose of Enalapril was determined such that its activity to inhibit ACE was equivalent to the activity of IPP to inhibit ACE.
The rats were sacrificed by exsanguination under diethylether anesthesia. The kidney was enucleated and then fixed with 10% neutral buffered formalin solution. Tissue samples were prepared from the fixed kidney by excising in parallel with the minor axis such that the tip of renal papilla was included. The specimen were embedded in paraffin and cut into thin sections with a thickness of 2.0 to 2.5 μm using a microtome. Two to five sections per rat were prepared. The thin sliced sections were subjected to hematoxylin eosin staining or periodic acid methenamine silver staining (PAM staining). In accordance with a method by Foglieni et al. (Chiara Foglieni, et al., “Protective effect of EDTA preadministration on renal ischemia” BMC Nephrology 2006, 7:5, [online], Mar. 15, 2006, BioMed Central Ltd, http://www.biomedcentral.com/bmcnephrol/), a histopathological examination was, with keeping the name of each sample concealed, carried out by a pathologist who was not involved in the test.
Under a microscopic observation, the glomerulus that atrophic lesions, deterioration of the glomerulus, glomerulosclerosis, alteration of Bowman's capsule or the like was observed was defined as the glomerulus with lesions, in accordance with the definition of the glomerular lesions described in a book by Enomoto et al. (edited by Makoto Enomoto, Yuzo Hayashi, and Hisako Tanaka, “Pathological tissues of experimental animals”, Softscience, pages 380-396). The atrophic lesion refers to conditions where the size ratio between the glomerulus and Bowman's capsule is altered due to glomerular atrophy. The deterioration of the glomerulus refers to conditions where the blood capillary cavity of the glomerulus is disappeared and glomerular functions are lost. The glomerulosclerosis refers to conditions where increased mesangial matrix was observed without accompanying hyperplasia of collagen fiber. The alteration of Bowman's capsule refers to conditions where hypertrophy of epithelial cells and uptake of lipid droplets and/or protein particles are observed. In one whole section, the frequency of occurrence of these glomerular lesions was scored from 0 to 3, and a score was determined for each individual rat.
Score 0: A case where one or two glomerular lesions owing to physiologic alterations were observed.
Score 1: A case where one or two focal regions in the glomerulus were observed, which regions were a limited and small range.
Score 2: A case where two to four focal regions in the glomerulus were observed, which regions were a middle sized range.
The focal regions herein indicate that a plural of lesions are, on the basis of pathological findings, observed in a certain area in one whole section.
The thickening of the renal artery wall at the hilum existing in the renal medulla and the thickening of the small and middle artery wall existing in the renal cortex were also evaluated by a tissue pathological test in the same manner as the observation of the glomerular lesions. […]

Molecule	degree of thickening of the small- and mid-sized artery wall (score 0 to 3) (male Wistar rats [1])	frequency of occurrence of the glomerular lesions (score 0 to 3) (male Wistar rats [2])	onset of the pathologic state of the glomerulus and the renal artery (result in words) (male Wistar rats [3])	With pathologic state (male Wistar rats [3]) [rats]	Without pathologic state (male Wistar rats [3]) [rats]
CCOC(=O)[C@H](CCc1ccccc1)N[C@@H](C)C(=O)N1CCC[C@H]1C(=O)O [Enalapril]	did not show the suppressive effect	did not show the suppressive effect	did not exhibit such an effect	2	7
Ile Pro Pro [IPP]			suppressed the onset of the pathologic state	0	9
Val Pro Pro [VPP]	decrease in the degree of thickening	suppression of the frequency of occurrence of the glomerular lesions			
